Experimental data taken from ChEMBL document CHEMBL1201862, “PubChem BioAssay data set” (2004).
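The compound was tested at five concentrations on cells cultured in 96-well plates, with a 48-hour exposure period. At the GI50, growth is halved.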 The source made the active and inactive calls. No stated cut-off is given here; in the data, active = GI50 up to about 1.1 µM and inactive = higher.

Tests used:
Experiment in all cases: NCI-60 cell line screen, 48 h
[1] = tested on: ACHN
[2] = tested on: BT-549
[3] = tested on: DU-145
[4] = tested on: HL-60
[5] = tested on: HOP-62
[6] = tested on: MCF7
[7] = tested on: MDA-MB-231
[8] = tested on: MDA-MB-435
[9] = tested on: NCI-H226
[10] = tested on: OVCAR-4
[11] = tested on: OVCAR-8
[12] = tested on: RXF 393
[13] = tested on: SF-268
[14] = tested on: SF-539
[15] = tested on: SR
[16] = tested on: T47D
[17] = tested on: TK-10
[18] = tested on: HCC 2998
[19] = tested on: HOP-92
[20] = tested on: SK-MEL-2

Measured: GI50

C1COCCOP2(N3CC3)=NP(N3CC3)(=NP(N3CC3)(N3CC3)=N2)OCCOCCO1 (stereo unspecified)
inactive: [1] > 100 µM | [2] > 100 µM | [3] 37.4 µM | [4] > 100 µM | [5] > 100 µM | [6] > 100 µM | [7] > 100 µM | [8] > 100 µM | [9] > 100 µM | [10] > 100 µM | [11] > 100 µM | [12] > 100 µM | [13] > 100 µM | [14] > 100 µM | [15] 50.4 µM | [16] 70.3 µM | [17] > 100 µM

CC(=O)NNc1nc(C)c(C(=O)/C=C/C=C/c2ccccc2)s1
inactive: [1] > 100 µM | [2] > 100 µM | [3] 54.5 µM | [18] > 100 µM | [4] 44.4 µM | [5] 80.4 µM | [19] > 100 µM | [6] > 100 µM | [7] 65.5 µM | [8] > 100 µM | [9] > 100 µM | [10] > 100 µM | [11] > 100 µM | [13] > 100 µM | [14] > 100 µM | [15] 80.9 µM | [16] 33.2 µM | [17] > 100 µM

CCO/C(Cc1ccc(Cl)cc1)=N/NC(N)=S
inactive: [1] > 100 µM | [2] > 100 µM | [3] > 100 µM | [18] > 100 µM | [5] > 100 µM | [19] > 100 µM | [6] > 100 µM | [7] > 100 µM | [8] > 100 µM | [9] > 100 µM | [10] > 100 µM | [11] > 100 µM | [14] > 100 µM | [20] > 100 µM | [15] > 100 µM | [16] 27.8 µM | [17] > 100 µM

N#CC(C#N)/N=C/c1ccncc1
inactive: [1] > 100 µM | [2] > 100 µM | [3] > 100 µM | [18] > 100 µM | [4] 39 µM | [5] > 100 µM | [19] > 100 µM | [6] > 100 µM | [7] > 100 µM | [8] > 100 µM | [9] > 100 µM | [10] > 100 µM | [11] > 100 µM | [12] > 100 µM | [13] > 100 µM | [14] > 100 µM | [20] > 100 µM | [16] > 100 µM | [17] > 100 µM

O[C@@H]1C=C[C@]23CCN(Cc4cc5c(cc42)OCO5)[C@@H]3C1
inactive: [1] 35.2 µM | [2] > 100 µM | [3] 24.7 µM | [4] > 100 µM | [5] 92 µM | [19] 65.6 µM | [6] 52.1 µM | [7] 58.2 µM | [8] 57 µM | [9] > 100 µM | [10] 34 µM | [11] 54.1 µM | [12] 20.8 µM | [13] > 100 µM | [14] > 100 µM | [20] 31.3 µM | [15] 67.8 µM | [16] 39.1 µM | [17] 49.8 µM

CC(C)(C)OC(=O)N1C/C=C\C(=O)C2(OCCO2)c2ccccc21
inactive: [1] 34.2 µM | [2] 22.5 µM | [3] 28.6 µM | [5] 48.9 µM | [19] 15.9 µM | [6] 31.4 µM | [7] 19.6 µM | [8] 17.7 µM | [9] 19.1 µM | [10] 28.4 µM | [11] 24.9 µM | [12] 21.2 µM | [13] 34 µM | [14] 22.1 µM | [20] 24.5 µM | [15] 25.8 µM | [16] 21.3 µM | [17] 24.3 µM

CCOC(=O)C1CCCCN1C(=O)Cc1c[nH]c2ccccc12 (stereo unspecified)
inactive: [1] 71.4 µM | [2] 94.8 µM | [3] 84.1 µM | [18] 77.8 µM | [4] 31.3 µM | [5] 87.9 µM | [19] 16 µM | [6] 37.5 µM | [7] 79.6 µM | [8] 34.4 µM | [9] > 100 µM | [10] 33.9 µM | [11] 42.4 µM | [12] 76.9 µM | [13] 45.2 µM | [14] > 100 µM | [20] 61.9 µM | [16] 37 µM | [17] > 100 µM

O=C1C[S+]([O-])C23c4cc5ccccc5n4CCC2CCCN13 (stereo unspecified)
inactive: [1] > 100 µM | [2] > 100 µM | [3] > 100 µM | [4] > 100 µM | [5] > 100 µM | [19] > 100 µM | [6] > 100 µM | [7] > 100 µM | [8] > 100 µM | [9] > 100 µM | [10] > 100 µM | [11] > 100 µM | [12] > 100 µM | [13] > 100 µM | [14] > 100 µM | [20] > 100 µM | [15] > 100 µM | [16] > 100 µM | [17] > 100 µM

CC1=NC(=Cc2ccc(O)cc2)C(=O)N1n1c(-c2ccccc2)nc2ccccc2c1=O
inactive: [1] > 100 µM | [2] > 100 µM | [3] > 100 µM | [18] > 100 µM | [4] > 100 µM | [5] > 100 µM | [6] > 100 µM | [7] > 100 µM | [8] > 100 µM | [9] > 100 µM | [11] > 100 µM | [13] > 100 µM | [14] > 100 µM | [15] > 100 µM | [16] > 100 µM | [17] > 100 µM

CC(C)CCC[C@@H](C)C1CCC2[C@@H]3CCC4C[C@@H](NS(C)(=O)=O)CC[C@]4(C)C3CC[C@@]21C (stereo partly specified)
inactive: [2] > 100 µM | [3] > 100 µM | [4] > 100 µM | [5] > 100 µM | [6] > 100 µM | [7] > 100 µM | [8] > 100 µM | [9] > 100 µM | [10] > 100 µM | [11] > 100 µM | [12] > 100 µM | [13] > 100 µM | [14] > 100 µM | [20] > 100 µM | [15] > 100 µM | [16] > 100 µM | [17] > 100 µM

C=C(C)[C@H]1CC23C(=O)C(C(=O)C(C)C)=C(O)[C@](C)(C[C@H]2C1(C)C)C3=O [LALIBINONE B]
inactive: [1] 16.6 µM | [2] 17.5 µM | [3] 35.7 µM | [4] 15.2 µM | [5] 15.6 µM | [6] 15.3 µM | [7] 15.6 µM | [8] 16.4 µM | [9] 16.2 µM | [10] 12.6 µM | [11] 17.9 µM | [12] 12.9 µM | [13] 18.1 µM | [20] 15.9 µM | [15] 14.5 µM | [16] 30.9 µM | [17] 20.2 µM
